Measurements published in US5591714A, “Derivatives of A82846” (priority 1994, dated 1997).
Values after ≈ are worked out from the molar mass of the structure shown.

How the values were obtained:
[1] = test system: Enterococcus faecalis 2041; assay: MIC, standard agar-dilution assay; format: cell-based
Procedure: (§1) The formula I compounds have in vitro and in vivo activity against Gram-positive pathogenic bacteria. The MIC's were determined using a standard agar-dilution assays.
^c Formerly Streptococcus faecalis 2041

Enterococcus faecium X66 = assay: MIC, standard agar-dilution assay; format: cell-based
Procedure: as §1
^b Formerly Streptococcus faecium X66

[2] = test system: Staphylococcus epidermidis EPI270; assay: MIC, standard agar-dilution assay; format: cell-based
Procedure: as §1

[3] = test system: Haemophilus influenzae 76; assay: MIC, standard agar-dilution assay; format: cell-based
Procedure: as §1

[4] = test system: Staphylococcus aureus NRRL X1.1; assay: MIC, standard agar-dilution assay; format: cell-based
Procedure: as §1

[5] = test system: Staphylococcus aureus X400; assay: MIC, standard agar-dilution assay; format: cell-based
Procedure: as §1

[6] = test system: Streptococcus pyogenes C203; assay: MIC, standard agar-dilution assay; format: cell-based
Procedure: as §1

[7] = test system: Klebsiella pneumoniae KAE; assay: MIC, standard agar-dilution assay; format: cell-based
Procedure: as §1

[8] = test system: Klebsiella pneumoniae X26; assay: MIC, standard agar-dilution assay; format: cell-based
Procedure: as §1

[9] = test system: Klebsiella pneumoniae X68; assay: MIC, standard agar-dilution assay; format: cell-based
Procedure: as §1

[10] = test system: Staphylococcus epidermidis 222; assay: MIC, standard agar-dilution assay; format: cell-based
Procedure: as §1

[11] = test system: Staphylococcus aureus V41; assay: MIC, standard agar-dilution assay; format: cell-based
Procedure: as §1

[12] = test system: Haemophilus influenzae C.L.; assay: MIC, standard agar-dilution assay; format: cell-based
Procedure: as §1

Streptococcus pneumoniae = assay: In vivo activity, experimentally infected mice (ED50); conditions: Streptococcus pneumoniae infection; doses administered subcutaneously to mice 1 and 4 hours postinfection
[13] = test system: Streptococcus pneumoniae Park 1; format: cell-based
Procedure: as §1

[14] = test system: Staphylococcus aureus S13E; format: cell-based
Procedure: as §1

Staphylococcus aureus = assay: In vivo activity, experimentally infected mice (ED50); conditions: Staphylococcus aureus infection; doses administered subcutaneously to mice 1 and 4 hours postinfection
Streptococcus pyogenes = assay: as above; conditions: Streptococcus pyogenes infection; doses administered subcutaneously to mice 1 and 4 hours postinfection
Escherichia coli TEM = assay: MIC, standard agar-dilution assay; format: cell-based
Procedure: as §1

Escherichia coli EC14 = assay: MIC, standard agar-dilution assay; format: cell-based
Procedure: as §1

Escherichia coli N10 = assay: MIC, standard agar-dilution assay; format: cell-based
Procedure: as §1

| Structure (SMILES) | MIC [1] | MIC (Enterococcus faecium X66) | MIC [2] | MIC [3] | MIC [4] | MIC [5] | MIC [6] | MIC [7] | MIC [8] | MIC [9] | MIC [10] | MIC [11] | MIC [12] | ED50 (Streptococcus pneumoniae) | MIC [13] | MIC [14] | ED50 (Staphylococcus aureus) | ED50 (Streptococcus pyogenes) | other results |
| --- | --- | --- | --- | --- | --- | --- | --- | --- | --- | --- | --- | --- | --- | --- | --- | --- | --- | --- | --- |
| CN[C@H](CC(C)C)C(=O)N[C@H]1C(=O)N[C@@H](CC(N)=O)C(=O)N[C@H]2C(=O)N[C@H]3C(=O)N[C@H](C(=O)N[C@H](C(=O)O)c4cc(O)cc(O)c4-c4cc3ccc4O)[C@H](O[C@H]3C[C@](C)(NCc4ccccc4)[C@@H](O)[C@H](C)O3)c3ccc(cc3)Oc3cc2cc(c3O[C@@H]2O[C@H](CO)[C@@H](O)[C@H](O)[C@H]2O[C@H]2C[C@](C)(NCc3ccccc3)[C@@H](O)[C@H](C)O2)Oc2ccc(cc2Cl)[C@H]1O [Compound 11] | 1 µg/mL (≈ 0.575 µM) | .25 µg/mL (≈ 0.144 µM) | 1 µg/mL (≈ 0.575 µM) | > 128 µg/mL | .25 µg/mL (≈ 0.144 µM) | .5 µg/mL (≈ 0.288 µM) | .25 µg/mL (≈ 0.144 µM) | > 128 µg/mL | > 128 µg/mL | > 128 µg/mL | .5 µg/mL (≈ 0.288 µM) | .5 µg/mL (≈ 0.288 µM) | > 128 µg/mL | 0.37 mg/kg/2 | .25 µg/mL (≈ 0.144 µM) | .25 µg/mL (≈ 0.144 µM) | 0.58 mg/kg/2 | 0.34 mg/kg/2 |  |
| CC(C)C[C@H](C(=O)N[C@H]1C(=O)N[C@@H](CC(N)=O)C(=O)N[C@H]2C(=O)N[C@H]3C(=O)N[C@H](C(=O)N[C@H](C(=O)O)c4cc(O)cc(O)c4-c4cc3ccc4O)[C@H](O[C@H]3C[C@](C)(NCc4ccccc4)[C@@H](O)[C@H](C)O3)c3ccc(cc3)Oc3cc2cc(c3O[C@@H]2O[C@H](CO)[C@@H](O)[C@H](O)[C@H]2O[C@H]2C[C@](C)(NCc3ccccc3)[C@@H](O)[C@H](C)O2)Oc2ccc(cc2Cl)[C@H]1O)N(C)Cc1ccccc1 [Compound 12] | 8 µg/mL (≈ 4.38 µM) | 4 µg/mL (≈ 2.19 µM) | 8 µg/mL (≈ 4.38 µM) | > 128 µg/mL | 8 µg/mL (≈ 4.38 µM) | 8 µg/mL (≈ 4.38 µM) | 2 µg/mL (≈ 1.09 µM) | > 128 µg/mL | > 128 µg/mL | > 128 µg/mL | 8 µg/mL (≈ 4.38 µM) | 8 µg/mL (≈ 4.38 µM) | > 128 µg/mL |  | 2 µg/mL (≈ 1.09 µM) | 4 µg/mL (≈ 2.19 µM) |  |  |  |
| CCCCCN(C)[C@H](CC(C)C)C(=O)N[C@H]1C(=O)N[C@@H](CC(N)=O)C(=O)N[C@H]2C(=O)N[C@H]3C(=O)N[C@H](C(=O)N[C@H](C(=O)O)c4cc(O)cc(O)c4-c4cc3ccc4O)[C@H](O[C@H]3C[C@](C)(N)[C@@H](O)[C@H](C)O3)c3ccc(c(Cl)c3)Oc3cc2cc(c3O[C@@H]2O[C@H](CO)[C@@H](O)[C@H](O)[C@H]2O[C@H]2C[C@](C)(N)[C@@H](O)[C@H](C)O2)Oc2ccc(cc2Cl)[C@H]1O [Compound 35] | .5 µg/mL (≈ 0.301 µM) | .5 µg/mL (≈ 0.301 µM) | 1 µg/mL (≈ 0.601 µM) | > 128 µg/mL | .5 µg/mL (≈ 0.301 µM) | .5 µg/mL (≈ 0.301 µM) | .25 µg/mL (≈ 0.15 µM) | > 128 µg/mL | > 128 µg/mL | > 128 µg/mL | .5 µg/mL (≈ 0.301 µM) | .25 µg/mL (≈ 0.15 µM) | > 128 µg/mL |  | .25 µg/mL (≈ 0.15 µM) | .25 µg/mL (≈ 0.15 µM) |  |  | MIC (Escherichia coli TEM): > 128 µg/mL; MIC (Escherichia coli EC14): > 128 µg/mL; MIC (Escherichia coli N10): > 128 µg/mL |
| CNC(CC(C)C)C(=O)NC1C(=O)NC(CC(N)=O)C(=O)NC2C(=O)NC3C(=O)NC(C(=O)NC(C(=O)O)c4cc(O)cc(O)c4-c4cc3ccc4O)C(OC3CC(C)(NCc4ccc(Cl)cc4)C(O)C(C)O3)c3ccc(c(Cl)c3)Oc3cc2cc(c3OC2OC(CO)C(O)C(O)C2OC2CC(C)(NCc3ccc(Cl)cc3)C(O)C(C)O2)Oc2ccc(cc2Cl)C1O (stereo not drawn) [Compound 61] |  |  |  |  |  |  |  |  |  |  |  |  |  | 0.08 mg/kg/2 |  |  | 1.83 mg/kg/2 | 0.10 mg/kg/2 |  |
| CNC(CC(C)C)C(=O)NC1C(=O)NC(CC(N)=O)C(=O)NC2C(=O)NC3C(=O)NC(C(=O)NC(C(=O)O)c4cc(O)cc(O)c4-c4cc3ccc4O)C(OC3CC(C)(NCc4cccc(Cl)c4)C(O)C(C)O3)c3ccc(c(Cl)c3)Oc3cc2cc(c3OC2OC(CO)C(O)C(O)C2OC2CC(C)(NCc3cccc(Cl)c3)C(O)C(C)O2)Oc2ccc(cc2Cl)C1O (stereo not drawn) [Compound 65] |  |  |  |  |  |  |  |  |  |  |  |  |  | 0.11 mg/kg/2 |  |  | 1.59 mg/kg/2 | 0.15 mg/kg/2 |  |
